Measured values: patent US20250059169A1, “PYRAZOLE-1(2H)-PHTHALAZINONE COMPOUND AND APPLICATION THEREOF” (MEDSHINE DISCOVERY INC., priority 2021, published 2025)

Tests used:
HCT116 MTAP KO cells = experiment: In vitro proliferation assay of HCT116 MTAP KO cells; type: cell-based; conditions: 10 days, 3D CellTiter-Glo
Experimental: (§1) McCoy's 5A medium, penicillin/streptomycin antibiotics, purchased from Wisent; fetal bovine serum, purchased from Biosera. 3D CellTiter-Glo (chemiluminescent cell viability assay reagent), purchased from Promega. HCT116 WT cell line, purchased from Nanjing Cobioer Biosciences Co., Ltd. HCT116 MTAP KO cell line, purchased from Horizon Discovery. Envision multilabel plate reader (PerkinElmer).
(§2) HCT116 WT and MTAP KO cells were seeded into an ultra-low attachment 96-well U-bottom plate at a density of 80 μL cell suspension per well containing 1000 HCT116 cells. The cell plate was incubated overnight in a CO2 incubator.
(§3) The test compound was serially diluted 5-fold across eight concentrations using a pipette, ranging from 2 mM to 25.6 nM, and tested in duplicate. 78 μL of medium per well was added to an intermediate plate. Subsequently, 2 μL of the serially diluted compound per well was transferred to the corresponding wells of the intermediate plate and mixed well. […] An additional cell plate was prepared to read the signal value on the day of compound addition, which served as the […] for data analysis.
(§4) The cell plate was added with 100 μL of chemiluminescent cell viability assay reagent per well and incubated at room temperature for 10 minutes to stabilize the luminescent signal. A multilabel microplate reader was used for reading. […]

HCT116 WT cells = experiment: In vitro proliferation assay of HCT116 WT cells; type: cell-based; conditions: 10 days, 3D CellTiter-Glo
Experimental: as §1, §2, §3, §4

[1] = In vitro liver microsomal stability test, human; type: in vitro ADME; conditions: Human liver microsomes, 1 μM compound, 0.5 mg/mL
Experimental: (§5) Liver microsomes: Human and animal microsomes were purchased from Corning or Xenotech and stored in a −80° C. freezer.
(§6) Reduced nicotinamide adenine dinucleotide phosphate (NADPH), supplier: Chem-Impex International, Cat. No.: 00616.
(§7) Stock solution: 10 mM DMSO solution
(§8) Preparation of working concentration: The stock solution was diluted to 100 µM using 100% acetonitrile (organic phase content: 99% acetonitrile, 1% DMSO).
(§9) Two 96-well incubation plates were prepared and named as T60 incubation plate and NCF60 incubation plate.
(§10) 445 μL of microsomal working solution (liver microsomal protein concentration of 0.56 mg/mL) was added to both the T60 incubation plate and the NCF60 incubation plate.
(§11) The two incubation plates were pre-incubated in a 37° C. water bath for approximately 10 minutes.
(§12) After pre-incubation, 5 μL of the test compound or control compound working solution was added to both the T60 incubation plate and the NCF60 incubation plate and mixed well. 50 μL of potassium phosphate buffer per well was added to the NCF60 incubation plate to initiate the reaction. 180 μL of termination solution (acetonitrile solution containing 200 ng/mL tolbutamide and 200 ng/mL labetalol) and 6 μL of NADPH regeneration system working solution were added to a TO termination plate. […]

[2] = In vitro liver microsomal stability test, dog; type: in vitro ADME; conditions: Dog liver microsomes, 1 μM compound, 0.5 mg/mL
Experimental: as §5, §6, §7, §8, §9, §10, §11, §12

[3] = In vitro liver microsomal stability test, rat; type: in vitro ADME; conditions: Rat liver microsomes, 1 μM compound, 0.5 mg/mL
Experimental: as §5, §6, §7, §8, §9, §10, §11, §12

[4] = Pharmacokinetic testing in CD-1 mice; type: in vivo
Experimental: Experimental purpose: To test the pharmacokinetic properties of the compound of the present disclosure in CD-1 mice.
Experimental materials: CD-1 mice (female, 15 to 30 g, 6 to 9 weeks, Beijing Vital River Laboratory Animal Technology Co., Ltd.)
The pharmacokinetic characteristics of the compound in rodents were tested following intravenous injection and oral administration according to a standard protocol. In the experiment, the candidate compound was prepared as a clear solution for single intravenous injection and as a homogeneous suspension for single oral administration in mice. In the case of intravenous injection, the dose was 3 mg/kg, with the vehicle being 5% DMSO/10% Solutol/85% water. In the case of oral administration, the dose was 30 mg/kg, with the vehicle being 0.5% MC (4000 cps)/0.2% Tween-80. Whole blood samples were collected within 24 hours, centrifuged at 3000 g for 15 minutes at 4° C., and the supernatant was separated to obtain plasma samples. 20 times the volume of acetonitrile solution containing internal standard was added to precipitate the protein. The samples were vortexed for 10 minutes and centrifuged at 3220 g for 15 minutes at 4° C. The supernatant was transferred to a 96-well plate and centrifuged at 3220 g for 5 minutes at 4° C. The supernatant was then injected for LC-MS/MS analysis to quantify plasma concentration, and pharmacokinetic parameters were calculated.

[5] = Pharmacokinetic testing in Beagles; type: in vivo
Experimental: Experimental purpose: To test the pharmacokinetic properties of the compound of the present disclosure in Beagles.
Experimental materials: Beagles (male, >6 months old, Beijing Marshall Biotechnology Co., Ltd.)
The pharmacokinetic characteristics of the compound in dogs were tested following intravenous injection and oral administration according to a standard protocol. In the experiment, the test compound was prepared as a clear solution for single intravenous injection and single oral administration in dogs. In the case of intravenous injection, the dose was 2 mg/kg, with the vehicle being 5% DMSO/10% Solutol/85% water. In the case of oral administration, the dose was 10 mg/kg, with the vehicle being 5% DMSO/10% Solutol/85% water. Whole blood samples were collected within 48 hours, centrifuged at 3000 g for 15 minutes at 4° C., and the supernatant was separated to obtain plasma samples. 20 times the volume of acetonitrile solution containing internal standard was added to precipitate the protein. The samples were vortexed for 10 minutes and centrifuged at 3220 g for 15 minutes at 4° C. The supernatant was transferred to a 96-well plate and centrifuged at 3220 g for 5 minutes at 4° C. The supernatant was then injected for LC-MS/MS analysis to quantify plasma concentration, and pharmacokinetic parameters were calculated.

[6] = test system: human large cell lung cancer LU99 subcutaneous xenograft tumor; experiment: In vivo efficacy test, LU99 subcutaneous xenograft tumor model; set-up: species or system BALB/c nude mice; conditions: for TGI: based on tumor volume on day 29
Experimental: To evaluate the tumor inhibitory effect of the compounds of the present disclosure on a human large cell lung cancer LU99 subcutaneous xenograft tumor model.
Female BALB/c nude mice were subcutaneously inoculated with the human large cell lung cancer LU99 cell line. After inoculation, the mice were randomly divided into groups based on body weight and tumor volume, with six animals per group, and were administered as described below.
Group 1 (vehicle group): When the tumor volume reached 207±9 mm^3 after inoculation, the mice were administered daily by gavage with the vehicle (5% DMSO/10% Solutol/85% double-distilled water) at a dose of 0.1 mL/10 g.
Group 2 (treatment group): When the tumor volume reached 207±10 mm^3 after inoculation, the mice were administered daily by gavage with the test compound (compound dissolved in 5% DMSO/10% Solutol/85% double-distilled water) at a dose of 12.5 mg/kg.
Group 3 (treatment group): When the tumor volume reached 207±10 mm^3 after inoculation, the mice were administered daily by gavage with the test compound (compound dissolved in 5% DMSO/10% Solutol/85% double-distilled water) at a dose of 25 mg/kg.
Group 4 (treatment group): When the tumor volume reached 207±14 mm^3 after inoculation, the mice were administered daily by gavage with the test compound (compound dissolved in 5% DMSO/10% Solutol/85% double-distilled water) at a dose of 50 mg/kg.
After the experimental grouping, the mice were weighed twice weekly, and the tumor diameters were measured using a vernier caliper. The tumor volume was calculated, and then the tumor growth inhibition (TGI) was calculated. On day 29 after experimental administration, the mice were euthanized and sampled. The calculation formulas are as follows:
Tumor volume=0.5×Length×Width^2
TGI (%)=[1−(Ti−T0)/(Ci−C0)]×100%, where Ti is the average tumor volume of a given administration group on a given day, T0 is the average tumor volume of the administration group at the start of administration, Ci is the average tumor volume of the control group on a given day (the same day as Ti), and C0 is the average tumor volume of the control group at the start of administration.

With `Cn1ncc(-c2ccc3c(=O)[nH]nc(CN)c3c2)c1-c1c(F)c(Cl)cc(OC2(C)CC2)c1C#N` (single isomer, unassigned) [Compound 1A] the IC50 (HCT116 MTAP KO cells) was 8 nM and the IC50 (HCT116 WT cells) was greater than 10000 nM.
Work on `Cn1ncc(-c2ccc3c(=O)[nH]nc(CN)c3c2)c1-c1c(F)c(Cl)cc(OC2(C)CC2)c1C#N` (single isomer, unassigned) [Compound 3A] yielded an IC50 (HCT116 MTAP KO cells) of 7.43 nM and an IC50 (HCT116 WT cells) of 4700 nM.
For `[2H]C([2H])([2H])n1ncc(-c2ccc3c(=O)[nH]nc(CN)c3c2)c1-c1c(F)c(Cl)cc(OC2(C)CC2)c1C#N` [Compound 3A], the “Liver microsomal stability CLint” value [1] was 20.4 mL/min/kg, the “Liver microsomal stability CLint” value [2] was 47.7 mL/min/kg and the “Liver microsomal stability CLint” value [3] was 53.6 mL/min/kg. For the same molecule, the “Clearance Cl” value ([4]; intravenous injection 3 mg/kg) was 30.0 mL/min/kg, the “Half-life T1/2” value ([4]; intravenous injection 3 mg/kg) was 1.29 h and the “Bioavailability F” value ([4]; oral 30 mg/kg) was 46.8%. For the same molecule, the “Concentration integral AUC0-last” value ([4]; oral 30 mg/kg) was 16.059 µM·h, the Clearance ([5]; intravenous injection 2 mg/kg) was 4.29 mL/min/kg and the “Half-life T1/2” value ([5]; intravenous injection 2 mg/kg) was 5.90 h. For the same molecule, the “Bioavailability F” value ([5]; oral 10 mg/kg) was 113%, the “Plasma concentration integral AUC0-last” value ([5]; oral 10 mg/kg) was 91.502 µM·h and the Tumor volume ([6]; 12.5 mg/kg daily by gavage, Day 0) was 207 mm^3. For the same molecule, the Tumor volume ([6]; 12.5 mg/kg daily by gavage, Day 4) was 253 mm^3, the Tumor volume ([6]; 12.5 mg/kg daily by gavage, Day 8) was 297 mm^3 and the Tumor volume ([6]; 12.5 mg/kg daily by gavage, Day 11) was 331 mm^3. The Tumor volume ([6]; 12.5 mg/kg daily by gavage, Day 15) was 382 mm^3, the Tumor volume ([6]; 12.5 mg/kg daily by gavage, Day 18) was 440 mm^3 and the Tumor volume ([6]; 12.5 mg/kg daily by gavage, Day 22) was 494 mm^3. It also gave a Tumor volume ([6]; 12.5 mg/kg daily by gavage, Day 25) of 565 mm^3, a Tumor volume ([6]; 12.5 mg/kg daily by gavage, Day 29) of 755 mm^3 and a TGI ([6]; 12.5 mg/kg daily by gavage) of 66%. For the same molecule, the Tumor volume ([6]; 25 mg/kg daily by gavage, Day 0) was 207 mm^3, the Tumor volume ([6]; 25 mg/kg daily by gavage, Day 4) was 254 mm^3 and the Tumor volume ([6]; 25 mg/kg daily by gavage, Day 8) was 247 mm^3. For the same molecule, the Tumor volume ([6]; 25 mg/kg daily by gavage, Day 11) was 240 mm^3, the Tumor volume ([6]; 25 mg/kg daily by gavage, Day 15) was 238 mm^3 and the Tumor volume ([6]; 25 mg/kg daily by gavage, Day 18) was 248 mm^3. It also gave a Tumor volume ([6]; 25 mg/kg daily by gavage, Day 22) of 282 mm^3, a Tumor volume ([6]; 25 mg/kg daily by gavage, Day 25) of 363 mm^3 and a Tumor volume ([6]; 25 mg/kg daily by gavage, Day 29) of 491 mm^3. For the same molecule, the TGI ([6]; 25 mg/kg daily by gavage) was 83%, the Tumor volume ([6]; 50 mg/kg daily by gavage, Day 0) was 207 mm^3 and the Tumor volume ([6]; 50 mg/kg daily by gavage, Day 4) was 239 mm^3. For the same molecule, the Tumor volume ([6]; 50 mg/kg daily by gavage, Day 8) was 238 mm^3, the Tumor volume ([6]; 50 mg/kg daily by gavage, Day 11) was 209 mm^3 and the Tumor volume ([6]; 50 mg/kg daily by gavage, Day 15) was 206 mm^3. The Tumor volume ([6]; 50 mg/kg daily by gavage, Day 18) was 193 mm^3, the Tumor volume ([6]; 50 mg/kg daily by gavage, Day 22) was 226 mm^3 and the Tumor volume ([6]; 50 mg/kg daily by gavage, Day 25) was 273 mm^3. It also gave a Tumor volume ([6]; 50 mg/kg daily by gavage, Day 29) of 412 mm^3 and a TGI ([6]; 50 mg/kg daily by gavage) of 87%.
